Series [1] deals with T1, SAP (Homo sapiens, UniProt P02743).
T1 construct: Depletion of plasma SAP by CPHPC, from the normal 20-50 mg/L to <0.1 mg/L; host or cells: circulating SAP in plasma and CSF of patients
The conditions noted are these: patients with Alzheimer's disease, cited from earlier work.

The conditions of series [2]: very low and variable; cited from earlier work.
In series [3] the target is T1, SAP. The conditions noted are these: systemic amyloidosis patients, for as long as the drug was administered; cited from earlier work.
Another series addresses T2, CYP2C9 (Homo sapiens, UniProt P11712).
T2 construct: purchased Cypex; host or cells: bactosomes (bacterial membranes)
The series can be described thus: Cytochrome p450 inhibition assay (bactosomes, fluorogenic substrate FCA). Format: biochemical. The conditions noted are these: recombinant human CYP (Cypex bactosomes). As for the experimental part:
(§1) The assay was designed to evaluate inhibition on cytochrome P450 (CYP) 3A4, 2C9, 2C19, 1A2 and 2D6 enzymes from bactosomes source using fluorogenic substrates. Compound (compound of Formula (I) or Comparator Compound) was dissolved in methanol at 1.65 mM. Daughter solutions were prepared in methanol at 660, 264, 106, 42, 17, 6.8, 2.7, 1.1 and 0.43 μM. NADPH cofactor was prepared with Glucose-6-phosphate (7.8 mg), Glucose-6-phosphate dehydrogenase (6 units), NADP (1.7 mg) per 1 mL in NaHCO3 2%. Substrate preparation was as follows: • 7-Methoxy-4-triFluoromethyl Coumarin-3-Acetic acid ethyl ester (FCA): 12.5 mM in acetonitrile • EthoxyResorufin (ER): 0.05 mM in acetonitrile • 4-MethylaminoMethyl-7-Methoxy Coumarin (MMC): 2.5 mM in methanol • 3-Butyryl-7Methoxy Coumarin (BMC): 2.5 mM in DMSO • 7-BenzyloxyQuinoline (7BQ): 2.5 mM in acetonitrile • DiEthoxyFluorescein (DEF): 0.1 mM in acetonitrile Bactosomes (Cypex source) at the concentration of 10 mg of protein per ml were diluted in phosphate buffer 50 mM pH7.4: • 0.33 ml of bactosomes CYP2C9 with 23.8 ml of buffer and 0.11 ml of FCA • 0.33 ml of bactosomes CYP1A2 with 23.6 ml of buffer and 0.275 ml of ER • 0.33 ml of bactosomes CYP2D6 with 23.8 ml of buffer and 0.11 ml of MMC • 0.33 ml of bactosomes CYP2C19 with 23.8 ml of buffer and 0.11 ml of BMC • 0.33 ml of bactosomes CYP3[…] with 23.6 ml of buffer and 0.275 ml of 7BQ • 0.33 ml of bactosomes CYP3[…] with 23.6 ml of buffer and 0.275 ml of DEF Pre-Incubation consisted in mixing 5 μl of compound solution with 220 μl diluted bactosomes and warming it at 37° C. for 10 min. Incubation was started with the addition of 25 μl of NADPH. […]

The target in a further series is T3, CYP2C19 (Homo sapiens, UniProt P33261).
T3 construct: purchased Cypex; host or cells: bactosomes (bacterial membranes)
Briefly: Cytochrome p450 inhibition assay (bactosomes, fluorogenic substrate BMC). Format: biochemical. The settings on record: recombinant human CYP (Cypex bactosomes). Here is the method: as §1

The target of the next series is T4, CYP2D6 (Homo sapiens, UniProt P10635).
T4 construct: purchased Cypex; host or cells: bactosomes (bacterial membranes)
The series can be described thus: Cytochrome p450 inhibition assay (bactosomes, fluorogenic substrate MMC). It is filed as biochemical. The settings on record: recombinant human CYP (Cypex bactosomes). Here is the method: as §1

A further series has as its target T5, CYP1A2 (Homo sapiens, UniProt P05177).
T5 construct: purchased Cypex; host or cells: bactosomes (bacterial membranes)
T5 sequence (P05177 1-516): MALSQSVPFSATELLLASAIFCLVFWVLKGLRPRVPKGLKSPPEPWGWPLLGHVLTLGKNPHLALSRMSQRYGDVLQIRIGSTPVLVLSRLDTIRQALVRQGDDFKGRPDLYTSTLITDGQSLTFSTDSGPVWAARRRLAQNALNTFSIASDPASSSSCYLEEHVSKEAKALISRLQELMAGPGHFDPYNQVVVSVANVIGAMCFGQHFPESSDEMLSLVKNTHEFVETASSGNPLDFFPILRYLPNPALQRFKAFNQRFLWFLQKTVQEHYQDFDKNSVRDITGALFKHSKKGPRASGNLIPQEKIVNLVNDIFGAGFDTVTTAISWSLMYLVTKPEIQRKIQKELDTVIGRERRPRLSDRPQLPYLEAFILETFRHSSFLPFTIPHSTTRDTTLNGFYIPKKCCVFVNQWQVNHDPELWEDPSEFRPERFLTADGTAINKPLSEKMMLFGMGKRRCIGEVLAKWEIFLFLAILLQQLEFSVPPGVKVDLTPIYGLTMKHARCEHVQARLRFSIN
The series can be described thus: Cytochrome p450 inhibition assay (bactosomes, fluorogenic substrate ER). Format: biochemical. The conditions noted are these: recombinant human CYP (Cypex bactosomes). Here is the method:
as §1

A further series concerns the target T6, CYP3A4 (Homo sapiens, UniProt P08684).
T6 construct: purchased Cypex; host or cells: bactosomes (bacterial membranes)
Briefly: Cytochrome p450 inhibition assay (bactosomes, fluorogenic substrates 7BQ and DEF). Format: biochemical. The settings on record: recombinant human CYP (Cypex bactosomes). Here is the method: The assay was designed to evaluate inhibition on cytochrome P450 (CYP) 3A4, 2C9, 2C19, 1A2 and 2D6 enzymes from bactosomes source using fluorogenic substrates. Compound (compound of Formula (I) or Comparator Compound) was dissolved in methanol at 1.65 mM. Daughter solutions were prepared in methanol at 660, 264, 106, 42, 17, 6.8, 2.7, 1.1 and 0.43 μM. NADPH cofactor was prepared with Glucose-6-phosphate (7.8 mg), Glucose-6-phosphate dehydrogenase (6 units), NADP (1.7 mg) per 1 mL in NaHCO3 2%. Substrate preparation was as follows: • 7-Methoxy-4-triFluoromethyl Coumarin-3-Acetic acid ethyl ester (FCA): 12.5 mM in acetonitrile • EthoxyResorufin (ER): 0.05 mM in acetonitrile • 4-MethylaminoMethyl-7-Methoxy Coumarin (MMC): 2.5 mM in methanol • 3-Butyryl-7Methoxy Coumarin (BMC): 2.5 mM in DMSO • 7-BenzyloxyQuinoline (7BQ): 2.5 mM in acetonitrile • DiEthoxyFluorescein (DEF): 0.1 mM in acetonitrile Bactosomes (Cypex source) at the concentration of 10 mg of protein per ml were diluted in phosphate buffer 50 mM pH7.4: • 0.33 ml of bactosomes CYP2C9 with 23.8 ml of buffer and 0.11 ml of FCA • 0.33 ml of bactosomes CYP1A2 with 23.6 ml of buffer and 0.275 ml of ER • 0.33 ml of bactosomes CYP2D6 with 23.8 ml of buffer and 0.11 ml of MMC • 0.33 ml of bactosomes CYP2C19 with 23.8 ml of buffer and 0.11 ml of BMC • 0.33 ml of bactosomes CYP3[…] with 23.6 ml of buffer and 0.275 ml of 7BQ • 0.33 ml of bactosomes CYP3[…] with 23.6 ml of buffer and 0.275 ml of DEF Pre-Incubation consisted in mixing 5 μl of compound solution with 220 μl diluted bactosomes and warming it at 37° C. for 10 min. Incubation was started with the addition of 25 μl of NADPH. Then fluorescence of substrate metabolite was read in a SAFIRE instrument (from Tecan) for 5 min: • FCA (2C9): Excitation at 410 nm and Emission at 510 nm • ER (1A2): Excitation at 530 nm and Emission at 590 nm • MMC (2D6): Excitation at 410 nm and Emission at 485 nm • BMC (2C19): Excitation at 410 nm and Emission at 465 nm • 7BQ (3A4H): Excitation at 410 nm and Emission at 530 nm • DEF (3A4L): Excitation at 485 nm and Emission at 530 nm Plotting of inhibition of substrate production against compound concentration allowed the determination of IC50 values.

Read-outs that look alike come from different tables or passages of the source.

T6 sequence (P08684 whole entry): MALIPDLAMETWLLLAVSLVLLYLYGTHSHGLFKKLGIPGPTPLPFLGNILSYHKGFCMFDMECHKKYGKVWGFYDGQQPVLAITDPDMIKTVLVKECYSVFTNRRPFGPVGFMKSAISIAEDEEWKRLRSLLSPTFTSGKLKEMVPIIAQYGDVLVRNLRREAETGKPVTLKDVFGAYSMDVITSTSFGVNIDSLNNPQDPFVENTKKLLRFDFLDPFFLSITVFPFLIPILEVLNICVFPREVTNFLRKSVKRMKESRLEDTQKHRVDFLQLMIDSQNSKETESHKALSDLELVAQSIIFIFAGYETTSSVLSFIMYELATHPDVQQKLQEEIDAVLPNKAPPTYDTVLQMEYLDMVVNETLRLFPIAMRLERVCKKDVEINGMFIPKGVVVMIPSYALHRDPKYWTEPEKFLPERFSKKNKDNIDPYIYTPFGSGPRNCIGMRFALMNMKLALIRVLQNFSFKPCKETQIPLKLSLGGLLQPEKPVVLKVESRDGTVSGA
T1 sequence (P02743 20-223): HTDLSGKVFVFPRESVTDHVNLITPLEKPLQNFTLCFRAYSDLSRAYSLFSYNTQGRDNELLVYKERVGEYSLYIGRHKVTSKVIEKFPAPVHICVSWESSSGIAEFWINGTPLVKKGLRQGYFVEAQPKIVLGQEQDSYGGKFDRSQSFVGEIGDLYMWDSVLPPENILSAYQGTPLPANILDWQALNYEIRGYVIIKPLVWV
T3 sequence (P33261 whole entry): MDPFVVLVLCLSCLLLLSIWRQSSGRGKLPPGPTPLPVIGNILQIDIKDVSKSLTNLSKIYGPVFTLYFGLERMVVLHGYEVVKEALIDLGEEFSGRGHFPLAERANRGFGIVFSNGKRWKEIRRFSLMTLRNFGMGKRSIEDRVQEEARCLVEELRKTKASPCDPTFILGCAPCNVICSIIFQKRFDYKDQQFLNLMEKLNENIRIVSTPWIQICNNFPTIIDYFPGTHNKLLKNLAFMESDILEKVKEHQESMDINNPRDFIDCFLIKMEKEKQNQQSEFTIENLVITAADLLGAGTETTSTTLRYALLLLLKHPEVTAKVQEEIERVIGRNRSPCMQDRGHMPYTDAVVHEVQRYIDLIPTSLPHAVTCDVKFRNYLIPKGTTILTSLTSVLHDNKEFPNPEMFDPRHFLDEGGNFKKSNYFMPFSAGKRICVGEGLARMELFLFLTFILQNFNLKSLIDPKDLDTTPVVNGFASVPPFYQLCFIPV
T2 sequence (P11712 whole entry): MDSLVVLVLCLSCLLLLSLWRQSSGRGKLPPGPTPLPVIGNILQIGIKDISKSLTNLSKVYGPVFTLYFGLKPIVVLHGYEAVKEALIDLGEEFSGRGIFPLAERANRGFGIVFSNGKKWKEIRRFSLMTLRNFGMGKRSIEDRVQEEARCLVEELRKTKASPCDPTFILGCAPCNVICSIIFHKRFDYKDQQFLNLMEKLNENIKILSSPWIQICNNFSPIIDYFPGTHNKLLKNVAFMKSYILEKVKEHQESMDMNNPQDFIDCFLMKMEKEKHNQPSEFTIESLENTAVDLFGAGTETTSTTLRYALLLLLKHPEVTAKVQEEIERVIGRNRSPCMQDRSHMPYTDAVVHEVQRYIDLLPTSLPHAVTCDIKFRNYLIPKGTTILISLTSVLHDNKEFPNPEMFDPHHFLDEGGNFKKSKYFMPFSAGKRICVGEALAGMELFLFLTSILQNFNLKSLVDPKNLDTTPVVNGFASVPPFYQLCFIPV
T4 sequence (P10635 whole entry): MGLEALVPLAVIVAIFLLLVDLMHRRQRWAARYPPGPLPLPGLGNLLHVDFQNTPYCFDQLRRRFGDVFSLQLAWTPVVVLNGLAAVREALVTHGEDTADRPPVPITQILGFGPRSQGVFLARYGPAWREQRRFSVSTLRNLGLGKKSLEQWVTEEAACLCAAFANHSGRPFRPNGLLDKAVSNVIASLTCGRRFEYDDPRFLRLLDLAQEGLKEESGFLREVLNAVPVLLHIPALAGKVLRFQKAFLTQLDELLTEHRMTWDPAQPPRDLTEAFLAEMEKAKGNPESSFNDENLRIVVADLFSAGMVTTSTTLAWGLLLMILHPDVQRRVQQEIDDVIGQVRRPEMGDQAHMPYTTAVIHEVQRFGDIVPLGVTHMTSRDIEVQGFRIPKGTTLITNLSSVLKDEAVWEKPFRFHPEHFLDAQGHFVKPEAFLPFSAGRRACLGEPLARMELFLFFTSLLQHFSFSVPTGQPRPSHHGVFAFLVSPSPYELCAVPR

Turning to `O=C(O)[C@H]1CCCN1C(=O)CCCCC(=O)N1CCC[C@@H]1C(=O)O` [CPHPC, (R)-1-[6-[(R)-2-carboxy-pyrrolidin-1-yl]-6-oxo-hexanoyl]pyrrolidine-2-carboxylic acid], the “CSF SAP concentration after depletion” value on SAP [1] (from 2-30 μg/L) was less than 0.1 µg/L. For the same compound, the “Plasma SAP after depletion” value at SAP [1] (from the normal 20-50 mg/L) is on record as less than 0.1 mg/L. The Oral bioavailability in series [2] is 3-5%. Moreover, at SAP [3], the “Depletion of circulating SAP” value is “almost complete depletion”.

As to `CC(OC(=O)[C@H]1CCCN1C(=O)CCCCC(=O)N1CCC[C@@H]1C(=O)OC(C)OC(=O)C(C)(C)C)OC(=O)C(C)(C)C` (stereo partly drawn) [Comparator Compound, (2R,2′R)-bis(1-(pivaloyloxy)ethyl) 1,1′-adipoylbis(pyrrolidine-2-carboxylate), reference compound], the IC50 at CYP2C9 was 26 µM; on CYP2C19, more than 33 µM; on CYP2D6 it was more than 33 µM; on CYP1A2 it was more than 33 µM; at CYP3A4 (substrate 7BQ, read-out: IC50 CYP3A4 (7BQ)), 5.5 µM; on CYP3A4 (substrate DEF, read-out: IC50 CYP3A4 (DEF)) it was 1.1 µM. The “IC50 CYP3A4 (7BQ)” value on CYP3A4 (substrate 7BQ) is recorded as “significant inhibition”. For the same compound, the “IC50 CYP3A4 (DEF)” value at CYP3A4 (substrate DEF) was “significant inhibition”.

Broadly, the IC50 is the midpoint of a concentration-inhibition curve.

(Values after patent publication US9737505B2, “Prodrug of 1,1′-(1,6-dioxo-1,6-hexanediyl)bis-D-proline” (GlaxoSmithKline Intellectual Property Development Limited, priority 2014, dated 2017).)
